Data: patent US4180655A, “Nitrosourea derivatives” (Suami; Tetsuo, priority 1974, dated 1979)
Read-outs that look alike come from different tables or passages of the source.

Test system: Leukemia L1210 cells
Assay: Chemotherapeutic effect of nitrosourea derivatives on leukemia L1210 in mice
Assay type: in vivo, mice (BDF1/BDF)
Source text: Chemotherapeutic effect of a variety of the nitrosourea derivatives of the formula I according to this invention on leukemia L1210 in mice were investigated by the following method and materials.
A--BDF1 mice (about 6 week-aged; body weight: 22±1 g); each experimental group was composed of 2 male mice.
B--BDF1 mice (about 7 week-aged; body weight: 21±2 g); each experimental group was composed of 3 male mice.
C--BDF mice (about 7 week-aged; body weight: 22±2 g); each experimental group was composed of 2 male mice.
D--BDF mice (about 6 week-aged; body weight: 21±2 g); each experimental group was composed of 3 male mice.
E--BDF1 mice (about six week-aged; body weight 20±1 g); each experimental group was composed of 3 female mice.
F--BDF1 mice (about six week-aged; body weight 21±1 g); each experimental group was composed of 3 male mice.
A--Leukemia L1210 cells (2.1×10^6 cells/ 0.05 ml/mouse) were intraperitoneally inoculated.
B--Leukemia L1210 cells (1.9×10^6 cells/0.05 ml/mouse) were intraperitoneally inoculated.
C--Leukemia L1210 cells (1.2×10^6 cells/0.05 ml/mouse) were intraperitoneally inoculated.
A--The test compound was dissolved in a physiological saline solution and administered intraperitoneally at a volume of 0.1 ml/mouse. The administration was made at once/day, from 24 hours after i.p. inoculation of L1210 cells, for 3 days. The effect of test compound was assessed by mean survival days of mice, percent increase in life-span, anatomical findings involving the volume of ascites.
B--The same as that used in A except that the drug administration was continued for 5 days.
C--The same as that used in A except that the test compound was suspended in 0.5% CMC solution and that the drug administration was continued for 5 days.
D--The same as that used in A except that the test compound was dissolved in distilled water for injection purposes.
The percentage increase in life-span (ILS) was calculated as follows:
Percentage increase in life-span (ILS)=T-C/C×100
T: The mean survival days of the treated animals.
C: The mean survival days of the untreated control.

[1] = 1 mg/kg i.p. once/day for 3 days (procedure A, saline)
[2] = 2 mg/kg i.p. once/day for 3 days (procedure A, saline)
[3] = 4 mg/kg i.p. once/day for 3 days (procedure A, saline)
[4] = 8 mg/kg i.p. once/day for 3 days (procedure A, saline)
[5] = 10 mg/kg i.p. once/day for 3 days (procedure A, saline)
[6] = Mus musculus, L1210, ip, 72 h, 1 mg/kg i.p. once/day for 3 days (procedure A, saline), read-out: Percentage increase in life-span (ILS)
[7] = Mus musculus, L1210, ip, 72 h, 2 mg/kg i.p. once/day for 3 days (procedure A, saline), read-out: Percentage increase in life-span (ILS)
[8] = Mus musculus, L1210, ip, 72 h, 4 mg/kg i.p. once/day for 3 days (procedure A, saline), read-out: Percentage increase in life-span (ILS)
[9] = Mus musculus, L1210, ip, 72 h, 8 mg/kg i.p. once/day for 3 days (procedure A, saline), read-out: Percentage increase in life-span (ILS)
[10] = Mus musculus, L1210, ip, 72 h, 10 mg/kg i.p. once/day for 3 days (procedure A, saline), read-out: Percentage increase in life-span (ILS)
[11] = 0.5 mg/kg i.p. once/day for 3 days (procedure A, saline)
[12] = 200 mg/kg i.p. once/day for 5 days (procedure B, saline)
[13] = 300 mg/kg i.p. once/day for 5 days (procedure B, saline)
[14] = Mus musculus, L1210, ip, 120 h, read-out: Percentage increase in life-span (ILS)
[15] = 16 mg/kg i.p. once/day for 3 days (procedure A, saline)
[16] = Mus musculus, L1210, ip, 72 h, 16 mg/kg i.p. once/day for 3 days (procedure A, saline), read-out: Percentage increase in life-span (ILS)
[17] = 2.5 mg/kg i.p. once/day for 3 days (procedure A, saline)
[18] = 5 mg/kg i.p. once/day for 3 days (procedure A, saline)

Row | Compound | Survival days, Treated (mean) [1] [days] | Volume of ascites, Treated [1] | Survival days, Treated (mean) [2] [days] | Volume of ascites, Treated [2] | Survival days, Treated (mean) [3] [days] | Volume of ascites, Treated [3] | Survival days, Treated (mean) [4] [days] | Volume of ascites, Treated [4] | ILS at 1 mg/kg [6] [%] | ILS at 2 mg/kg [7] [%] | ILS at 4 mg/kg [8] [%] | ILS at 8 mg/kg [9] [%] | further results
1 | O=NN(CCCl)C(=O)N[C@@H]1O[C@H](CO)[C@H](O)[C@H](O)[C@H]1O [Compound 7, 1-(2-chloroethyl)-3-(β-D-galactopyranosyl)-1-nitrosourea] | 18.5 | 4.6 | 14.7 | 0.8 | > 47.0 | 0 | > 47.0 | 0 | 98.9 | 58.1 | > 405 | > 405 | Survival days, Treated (mean) [5]: 18.7 days; Volume of ascites, Treated [5]: 0; ILS at 10 mg/kg [10]: 101%
2 | O=NN(CCCl)C(=O)N[C@@H]1O[C@H](CO)[C@@H](O)[C@H](O)[C@@H]1O [Compound 2, 1-(2-chloroethyl)-3-(β-D-mannopyranosyl)-1-nitrosourea] | 13.7 | 2.3 | 14.7 | 1.2 | 15.0 | 1.2 | 18.3 | 0 | 51.9 | 63 | 66.7 | 103 | Survival days, Treated (mean) [11]: 13.0 days; Volume of ascites, Treated [11]: 3.0; ILS at 0.5 mg/kg (Mus musculus, L1210, ip, 72 h, 0.5 mg/kg i.p. once/day for 3 days (procedure A, saline), read-out: Percentage increase in life-span (ILS)): 44.4%
3 | CO[C@@H]1O[C@H](C)[C@@H](O)[C@H](O)[C@H]1NC(=O)N(C)N=O [Compound 6, Methyl 2,6-dideoxy-2-(N'-methyl-N-nitrosoureido)-βD-glucopyranoside] |  |  |  |  |  |  |  |  |  |  |  |  | Survival days, Treated (mean) [12]: 15.1 days; Volume of ascites, Treated [12]: 2.0; Survival days, Treated (mean) [13]: 13.0 days; Volume of ascites, Treated [13]: 0.3; ILS at 200 mg/kg [14]: 77.6%; ILS at 300 mg/kg [14]: 52.9%
4 | O=NN(CCCl)C(=O)N[C@H]1[C@H](O)CCC[C@@H]1O [Compound 4, 1-(2-chloroethyl)-3-(1,3/2N-dihydroxycyclohexyl)-1-nitrosourea] |  |  | 22.0 | 0.8 | > 60.0 | 0 | > 59.3 | 0 |  | 114 | > 482 | > 476 | Survival days, Treated (mean) [15]: 13.0 days; Volume of ascites, Treated [15]: 0; ILS at 16 mg/kg [16]: 26.2%
5 | COc1cccc2c1C(=O)c1c(O)c3c(c(O)c1C2=O)C[C@@](O)(C(C)=O)C[C@@H]3O[C@H]1C[C@H](N)[C@H](O)[C@H](C)O1 [Compound 10, Daunomycin, reference compound] |  |  |  |  |  |  |  |  |  |  |  |  | Survival days, Treated (mean) (0.25 mg/kg i.p. once/day for 5 days (procedure C, 0.5% CMC)): 10.2 days; Survival days, Treated (mean) (0.5 mg/kg i.p. once/day for 5 days (procedure C, 0.5% CMC)): 12.8 days; Survival days, Treated (mean) (1 mg/kg i.p. once/day for 5 days (procedure C, 0.5% CMC)): 12.6 days; Survival days, Treated (mean) (2 mg/kg i.p. once/day for 5 days (procedure C, 0.5% CMC)): 13.6 days; ILS at 0.25 mg/kg (Mus musculus, L1210, ip, 120 h, 0.25 mg/kg i.p. once/day for 5 days (procedure C, 0.5% CMC), read-out: Percentage increase in life-span (ILS)): 20%; ILS at 0.5 mg/kg (Mus musculus, L1210, ip, 120 h, 0.5 mg/kg i.p. once/day for 5 days (procedure C, 0.5% CMC), read-out: Percentage increase in life-span (ILS)): 50.6%; ILS at 1 mg/kg (Mus musculus, L1210, ip, 120 h, 1 mg/kg i.p. once/day for 5 days (procedure C, 0.5% CMC), read-out: Percentage increase in life-span (ILS)): 48.3%; ILS at 2 mg/kg (Mus musculus, L1210, ip, 120 h, 2 mg/kg i.p. once/day for 5 days (procedure C, 0.5% CMC), read-out: Percentage increase in life-span (ILS)): 60%
6 | O=NN(CCCl)C(=O)N[C@@H]1O[C@H](CO)[C@@H](O[C@@H]2O[C@H](CO)[C@H](O)[C@H](O)[C@H]2O)[C@H](O)[C@H]1O [Compound 8, 1-(2-chloroethyl)-3-(β-D-lactosyl)-1-nitrosourea] |  |  |  |  |  |  |  |  |  |  |  |  | Survival days, Treated (mean) [17]: 12.5 days; Volume of ascites, Treated [17]: 3.3; Survival days, Treated (mean) [18]: 14.3 days; Volume of ascites, Treated [18]: 1.0; Survival days, Treated (mean) [5]: > 47.0 days; Volume of ascites, Treated [5]: 0; ILS at 2.5 mg/kg (Mus musculus, L1210, ip, 72 h, 2.5 mg/kg i.p. once/day for 3 days (procedure A, saline), read-out: Percentage increase in life-span (ILS)): 28.9%; ILS at 5 mg/kg (Mus musculus, L1210, ip, 72 h, 5 mg/kg i.p. once/day for 3 days (procedure A, saline), read-out: Percentage increase in life-span (ILS)): 47.4%; ILS at 10 mg/kg [10]: > 384%
7 | O=NN(CCCl)C(=O)N[C@@H]1OC[C@@H](O)[C@H](O)[C@H]1O [Compound 3, 1-(2-chloroethyl)-1-nitroso-3-(β-D-xylopyranosyl)urea] | 17.0 | 0 | > 24.0 | 0 | > 60.0 | 0 | > 60.0 | 0 | 54.5 | > 118 | > 446 | > 446 | Survival days, Treated (mean) [15]: 9.0 days; Volume of ascites, Treated [15]: 0; ILS at 16 mg/kg [16]: -18.2%
